Where two headings read alike, the source gives them in different places.
Columns and labels:
naïve human CD8 T cells = assay: Human CD8 T cells IFN-γ assay; assay type: cell-based; settings: read-out: HuCD8 INFG Normalized EC50;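 note: Naïve human CD8 T cells stimulated with plate-bound anti-CD3 and soluble anti-CD28, IFN-γ in supernatant quantified by AlphaLISA and converted to pg/mL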
human DGKζ = target: T1, human DGKζ (Homo sapiens, UniProt Q13574); assay: DGKζ LIPGLO assay (extruded liposome substrate), in vitro DGK inhibition; assay type: biochemical; settings: read-out: DGKz LIPGLO IC50
T1 construct: TVMV protease cleavage site (C); Hexa-His (C); made in house; host or cells: Sf9 insect cells (baculovirus, Bac-to-Bac)
T1 sequence (Q13574 with tags, fused parts or gaps isoform Q13574-4): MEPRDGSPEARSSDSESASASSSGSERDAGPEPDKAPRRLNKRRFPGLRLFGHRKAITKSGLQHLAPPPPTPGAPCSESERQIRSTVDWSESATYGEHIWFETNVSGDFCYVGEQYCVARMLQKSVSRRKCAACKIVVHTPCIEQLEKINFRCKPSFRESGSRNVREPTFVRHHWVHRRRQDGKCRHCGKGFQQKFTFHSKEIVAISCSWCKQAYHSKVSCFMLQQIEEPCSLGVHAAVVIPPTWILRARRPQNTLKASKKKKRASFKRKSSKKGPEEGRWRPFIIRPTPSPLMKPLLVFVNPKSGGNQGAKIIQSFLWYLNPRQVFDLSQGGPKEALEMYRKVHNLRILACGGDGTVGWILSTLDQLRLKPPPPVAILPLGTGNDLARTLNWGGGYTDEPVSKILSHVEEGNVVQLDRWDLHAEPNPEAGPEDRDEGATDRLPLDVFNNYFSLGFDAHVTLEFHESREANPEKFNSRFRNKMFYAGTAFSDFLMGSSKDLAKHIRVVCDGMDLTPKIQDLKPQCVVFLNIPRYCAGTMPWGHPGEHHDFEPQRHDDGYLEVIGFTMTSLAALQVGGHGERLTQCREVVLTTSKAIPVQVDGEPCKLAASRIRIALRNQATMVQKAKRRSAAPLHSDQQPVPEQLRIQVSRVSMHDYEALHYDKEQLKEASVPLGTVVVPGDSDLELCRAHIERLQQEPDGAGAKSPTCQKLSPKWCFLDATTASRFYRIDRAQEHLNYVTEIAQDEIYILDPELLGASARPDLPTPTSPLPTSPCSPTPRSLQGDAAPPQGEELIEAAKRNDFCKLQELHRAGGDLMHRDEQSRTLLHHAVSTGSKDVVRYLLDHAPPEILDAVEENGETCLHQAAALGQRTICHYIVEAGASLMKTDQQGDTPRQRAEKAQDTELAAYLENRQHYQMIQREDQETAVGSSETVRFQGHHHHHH

human DGKα = target: T2, human DGKα (Homo sapiens, UniProt P23743); assay: DGKα LIPGLO assay (extruded liposome substrate), in vitro DGK inhibition; assay type: biochemical; settings: read-out: DGKa LIPGLO IC50
T2 construct: TVMV protease cleavage site (C); Hexa-His (C); made in house; host or cells: Sf9 insect cells (baculovirus, Bac-to-Bac)
T2 sequence (P23743 with tags, fused parts or gaps): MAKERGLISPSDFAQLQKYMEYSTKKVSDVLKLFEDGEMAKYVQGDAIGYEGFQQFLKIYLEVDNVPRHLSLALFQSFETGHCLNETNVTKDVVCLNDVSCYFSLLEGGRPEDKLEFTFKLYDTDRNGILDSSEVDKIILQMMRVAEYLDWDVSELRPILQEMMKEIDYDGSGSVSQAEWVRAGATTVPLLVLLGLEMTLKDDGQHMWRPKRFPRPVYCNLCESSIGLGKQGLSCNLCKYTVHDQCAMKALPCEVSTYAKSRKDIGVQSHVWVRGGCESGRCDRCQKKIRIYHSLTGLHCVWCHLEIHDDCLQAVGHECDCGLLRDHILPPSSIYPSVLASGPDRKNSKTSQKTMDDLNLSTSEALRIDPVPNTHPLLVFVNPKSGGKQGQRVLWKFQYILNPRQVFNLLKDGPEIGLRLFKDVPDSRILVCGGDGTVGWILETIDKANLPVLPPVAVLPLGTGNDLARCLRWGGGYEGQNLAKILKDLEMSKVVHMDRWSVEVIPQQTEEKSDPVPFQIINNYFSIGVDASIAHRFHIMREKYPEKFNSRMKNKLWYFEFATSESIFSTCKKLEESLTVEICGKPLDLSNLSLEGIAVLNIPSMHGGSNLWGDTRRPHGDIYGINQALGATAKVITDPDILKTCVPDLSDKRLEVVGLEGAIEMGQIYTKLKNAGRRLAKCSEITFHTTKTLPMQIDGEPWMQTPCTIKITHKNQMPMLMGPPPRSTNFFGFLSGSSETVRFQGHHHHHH

Human venous whole blood = assay: Human whole blood IFN-γ assay; assay type: cell-based; settings: human whole blood, read-out: INFg Whole Blood Normalized Agonist EC50;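 note: blood from healthy donors exposed to compound for 1 h before stimulation with anti-CD3 and anti-CD28 at 1 µg/mL each, IFN-γ quantified in supernatant by AlphaLISA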
[1] = Homo sapiens, T-cell, 20 h, normalized to 3 μM reference compound with anti-CD3 plus anti-CD28 as 100% activation
[2] = normalized to 3 μM reference compound with anti-CD3 plus anti-CD28 as 100% activation
[3] = Homo sapiens, 24 h, normalized to 3 μM reference compound with anti-CD3 plus anti-CD28 as 100% activation

SMILES	IC50 (human DGKζ; liposome (LIPGLO) assay) [µM]	IC50 (human DGKα; liposome (LIPGLO) assay) [µM]	IC50 (human DGKζ; DGKζ liposome (LIPGLO) assay) [µM]	IC50 (human DGKα; DGKα liposome (LIPGLO) assay) [µM]	EC50 (naïve human CD8 T cells; [1]) [µM]	EC50 (Human venous whole blood; [2]) [µM]	EC50 (Human venous whole blood; Homo sapiens, normalized to 3 μM reference compound with anti-CD3 plus anti-CD28 as 100% activation) [µM]	EC50 (Human venous whole blood; [3]) [µM]	EC50 (naïve human CD8 T cells; Homo sapiens, T-cell, 20 h, naïve human CD8 T cells, anti-CD3 plus anti-CD28, 3 μM reference compound = 100% activation) [µM]	EC50 (Human venous whole blood; Homo sapiens, 24 h, anti-CD3 plus anti-CD28, 24 hours, 3 μM reference compound = 100% activation) [µM]	EC50 (naïve human CD8 T cells; [2]) [µM]
C[C@@H]1CN(c2cc(=O)n(C)c3ccc(C#N)nc23)[C@@H](C)CN1C(c1ccc(OC(F)(F)F)cc1)c1ccc(F)cn1 (mixture of isomers) [Example 462, 8-((2S,5R)-4-((5-fluoropyridin-2-yl)(4-(trifluoromethoxy)phenyl)methyl)-2,5-dimethylpiperazin-1-yl)-5-methyl-6-oxo-5,6-dihydro-1,5-naphthyridine-2-carbonitrile]	1.8	0.14			0.02	0.45					
C[C@@H]1CN(c2cc(=O)n(C)c3ccc(C#N)nc23)[C@@H](C)CN1C(c1ccc(F)cc1)c1cccc(F)c1 (mixture of isomers) [Example 248, 8-[(2S,5R)-4-[(3-fluorophenyl)(4-fluorophenyl)methyl]-2,5-dimethylpiperazin-1-yl]-5-methyl-6-oxo-5,6-dihydro-1,5-naphthyridine-2-carbonitrile]	0.79	1.3			0.053			0.71			
Cn1c(=O)cc(N2CCN(C(c3ccc(F)cc3)c3ccc(F)cc3)C(C(=O)NC3CC3)C2)c2nc(C#N)ccc21 (single isomer, unassigned) [Example 47, 1-(bis(4-fluorophenyl)methyl)-4-(6-cyano-1-methyl-2-oxo-1,2-dihydro-1,5-naphthyridin-4-yl)-N-cyclopropylpiperazine-2-carboxamide]	5.2	260						5			10
COc1cc(F)ccc1C(N1C[C@H](C)N(c2cc(=O)n(C)c3ccc(C#N)nc23)C[C@H]1C)C(C)(C)C (single isomer, unassigned) [Example 186]	14	3.3				20					10
C[C@@H]1CN(c2cc(=O)n(C)c3ccc(C#N)nc23)[C@@H](C)CN1C(c1ccc(F)cc1)c1ncccc1F (single isomer, unassigned) [Example 187]	1.3	0.18				1.4					0.11
C[C@@H]1CN(c2cc(=O)n(C)c3ccc(C#N)nc23)[C@@H](C)CN1C(c1ccc(Cl)cc1)c1ncccc1F (single isomer, unassigned) [Example 189]	0.55	0.2			0.1			1.2			
C[C@@H]1CN(c2cc(=O)n(C)c3ccc(C#N)nc23)[C@@H](C)CN1C(c1ccc(Cl)cc1)c1ncccc1F (single isomer, unassigned) [Example 190]	1.1	0.22				0.7					0.17
C[C@@H]1CN(c2cc(=O)n(C)c3ccc(C#N)nc23)[C@@H](C)CN1C(c1ccc(Cl)cc1)c1ccc(F)cn1 (single isomer, unassigned) [Example 192]	1.5	0.12				0.6					0.056

More lines, main results first:

IC50 (human DGKζ; liposome (LIPGLO) assay) [µM]	IC50 (human DGKα; liposome (LIPGLO) assay) [µM]	IC50 (human DGKζ; DGKζ liposome (LIPGLO) assay) [µM]	IC50 (human DGKα; DGKα liposome (LIPGLO) assay) [µM]	SMILES	EC50 (naïve human CD8 T cells; [1]) [µM]	EC50 (Human venous whole blood; [2]) [µM]	EC50 (Human venous whole blood; Homo sapiens, normalized to 3 μM reference compound with anti-CD3 plus anti-CD28 as 100% activation) [µM]	EC50 (Human venous whole blood; [3]) [µM]	EC50 (naïve human CD8 T cells; Homo sapiens, T-cell, 20 h, naïve human CD8 T cells, anti-CD3 plus anti-CD28, 3 μM reference compound = 100% activation) [µM]	EC50 (Human venous whole blood; Homo sapiens, 24 h, anti-CD3 plus anti-CD28, 24 hours, 3 μM reference compound = 100% activation) [µM]	EC50 (naïve human CD8 T cells; [2]) [µM]
1.6	0.87			C[C@@H]1CN(c2cc(=O)n(C)c3ccc(C#N)nc23)[C@@H](C)CN1C(c1ccccc1)c1ccc(F)cc1 (mixture of isomers) [Example 182, 8-[(2S,5R)-4-[(4-fluorophenyl)(phenyl)methyl]-2,5-dimethylpiperazin-1-yl]-5-methyl-6-oxo-5,6-dihydro-1,5-naphthyridine-2-carbonitrile]	0.03		0.68				
		1.5	4.4	Cc1ccc(C(c2ccc(Cl)cc2)N2CCN(c3c(C#N)c(=O)n(C)c4ccc(C#N)nc34)C[C@H]2C)cc1 (mixture of isomers) [Example 907]					0.07	0.73	
0.21	4.4			COc1cc(F)ccc1C(N1C[C@H](C)N(c2cc(=O)n(C)c3ccc(C#N)nc23)C[C@H]1C)C(C)(C)C (single isomer, unassigned) [Example 185]	10	2					
3.8	0.69			C[C@@H]1CN(c2cc(=O)n(C)c3ccc(C#N)nc23)[C@@H](C)CN1C(c1ccc(F)cc1)c1ncccc1F (single isomer, unassigned) [Example 188]		0.66					0.014
0.59	0.2			C[C@@H]1CN(c2cc(=O)n(C)c3ccc(C#N)nc23)[C@@H](C)CN1C(c1ccc(Cl)cc1)c1ccc(F)cn1 (single isomer, unassigned) [Example 191]	0.031			0.43			
0.68	0.2			C[C@@H]1CN(c2cc(=O)n(C)c3ccc(C#N)nc23)[C@@H](C)CN1C(c1ccc(F)cc1)c1ccc(F)cn1 (single isomer, unassigned) [Example 194]	0.04			0.98			
